Results reported in article PMC11576395 (iScience, 2024).
Like-named read-outs stand apart in the source and are kept apart here.

Legend:
Experiment in all cases: thioflavin T aggregation assay of recombinant protein, […] compound
Format in all cases: biochemical
Details in all cases: read-out: % inhibition at 50 μM
α-synuclein [1] = target: T1, α-synuclein (Homo sapiens, UniProt P37840)
α-synuclein [2] = target: T1, α-synuclein; remark: listed apart in the source
[3] = target: T2, AIMP2 (aminoacyl-tRNA synthetase interacting multifunctional protein-2) (Homo sapiens, UniProt Q13155)
T2 sequence (Q13155 1-320): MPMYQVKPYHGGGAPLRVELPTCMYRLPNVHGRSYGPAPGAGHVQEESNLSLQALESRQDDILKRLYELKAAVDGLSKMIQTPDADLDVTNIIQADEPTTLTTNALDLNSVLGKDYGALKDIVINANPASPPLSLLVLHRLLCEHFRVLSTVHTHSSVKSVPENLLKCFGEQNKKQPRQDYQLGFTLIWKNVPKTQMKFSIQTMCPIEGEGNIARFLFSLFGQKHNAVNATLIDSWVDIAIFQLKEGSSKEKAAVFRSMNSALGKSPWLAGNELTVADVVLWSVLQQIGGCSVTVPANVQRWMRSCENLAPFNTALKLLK

SMILES	inhibition at 50 µM (α-synuclein [1]) [%]	inhibition at 50 µM (α-synuclein [2]) [%]	inhibition at 50 µM [3] [%]
C[C@]12CC[C@H]3[C@@H](CCC4=CC(=O)CC[C@@H]43)[C@@H]1CC[C@@H]2O [Nandrolone]	~39.9		
CC(C)COc1ccc2c(c1)CC[C@@H]1[C@@H]2CC[C@]2(C)[C@H](O)CC[C@@H]12 [SG13-136, (8R,9S,13S,14S,17R)-3-isobutoxy-13-methyl-7,8,9,11,12,13,14,15,16,17-decahydro-6H-cyclopenta[a]phenanthren-17-ol]		36.7	56.2
